Data from PubChem BioAssay (NCI).
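How tested: cells in 96-well plates exposed to compound for 48 hours at five concentrations. The concentration for full growth arrest is given as TGI.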

Legend:
Assay in all cases: NCI tumour cell line growth inhibition, 48 h
KM20L2 colon = test system: KM20L2 colon
RXF-631 renal = test system: RXF-631 renal
LXFL 529 NSCLC = test system: LXFL 529 NSCLC
SNB-78 CNS = test system: SNB-78 CNS
XF 498 CNS = test system: XF 498 CNS
HOP-18 NSCLC = test system: HOP-18 NSCLC
P388 leukemia = test system: P388 leukemia
SN12K1 renal = test system: SN12K1 renal
P388/ADR leukemia = test system: P388/ADR leukemia

Structure (SMILES): CC(C)(C)C1CCC2(CC1)CCN(CCCN1CCOCC1)CC2
- TGI (KM20L2 colon): 5.24 µM
- TGI (RXF-631 renal): 31 µM
- TGI (LXFL 529 NSCLC): 21.5 µM
- TGI (SNB-78 CNS): 91.9 µM

Structure (SMILES): COc1cc2ccc1-c1cc(ccc1O)CC1c3cc4c(cc3CCN1C)Oc1c(OC)cc3c(c1O4)C(C2)N(C)CC3 (stereo not given)
- TGI (KM20L2 colon): 2.97 µM
- TGI (LXFL 529 NSCLC): 3.23 µM
- TGI (SNB-78 CNS): 5.23 µM
- TGI (XF 498 CNS): 3.44 µM

Structure (SMILES): CN(C)CCNC(=O)c1cccc2nc3c4ccccc4c4ccccc4c3nc12
- TGI (KM20L2 colon): 10.3 µM
- TGI (LXFL 529 NSCLC): 10.1 µM
- TGI (HOP-18 NSCLC): 20.1 µM
- TGI (SNB-78 CNS): 37.6 µM
- TGI (XF 498 CNS): 9.06 µM

Structure (SMILES): Cc1c2ccnc(-c3ccccc3)c2cc2c1[nH]c1ccccc12
- TGI (KM20L2 colon): 6.8 µM
- TGI (P388 leukemia): 5.46 µM
- TGI (HOP-18 NSCLC): 8.67 µM
- TGI (SN12K1 renal): 5.04 µM
- TGI (P388/ADR leukemia): 6.08 µM
- TGI (SNB-78 CNS): 30.4 µM

Structure (SMILES): COc1cc2c(cc1OC)C(Cl)C(c1ccc(Cl)cc1)=C2Cl (stereo not given)
- TGI (KM20L2 colon): 39.5 µM
- TGI (RXF-631 renal): 51.7 µM
- TGI (LXFL 529 NSCLC): 17.5 µM
- TGI (HOP-18 NSCLC): 31.7 µM
- TGI (SNB-78 CNS): 58.5 µM
- TGI (XF 498 CNS): 9.09 µM

Structure (SMILES): Cc1cc(=O)[nH]c(NN2C(Cl)C(=O)C2c2cccc([N+](=O)[O-])c2)n1 (stereo not given)
- TGI (KM20L2 colon): > 100 µM
- TGI (LXFL 529 NSCLC): 29.9 µM
- TGI (HOP-18 NSCLC): 78 µM
- TGI (SNB-78 CNS): > 100 µM

Structure (SMILES): Oc1cc(O)cc(/C=C/c2ccc(O)c(O)c2)c1
- TGI (KM20L2 colon): 86.1 µM
- TGI (P388 leukemia): > 66.9 µM
- TGI (HOP-18 NSCLC): > 100 µM
- TGI (SN12K1 renal): 18.3 µM
- TGI (P388/ADR leukemia): > 67.5 µM
- TGI (SNB-78 CNS): 76.5 µM

Structure (SMILES): CN(C)c1ccc(C2CC(=O)C(C#N)=C(c3ccccc3)NN2C)cc1 (stereo not given)
- TGI (RXF-631 renal): > 100 µM
- TGI (LXFL 529 NSCLC): > 100 µM
- TGI (HOP-18 NSCLC): > 100 µM
- TGI (SNB-78 CNS): > 100 µM
- TGI (XF 498 CNS): 38.3 µM
